Each compound was assayed against T1, rat α2B adrenoceptor (Rattus norvegicus, UniProt P19328) (assay: Receptor binding assay, [3H]rauwolscine, CHO-RNG cell membranes). Details: 22°C, 30 minutes.
T1 construct: expressed in transfected cells; host or cells: CHO (CHO-RNG)
T1 sequence (P19328 1-453): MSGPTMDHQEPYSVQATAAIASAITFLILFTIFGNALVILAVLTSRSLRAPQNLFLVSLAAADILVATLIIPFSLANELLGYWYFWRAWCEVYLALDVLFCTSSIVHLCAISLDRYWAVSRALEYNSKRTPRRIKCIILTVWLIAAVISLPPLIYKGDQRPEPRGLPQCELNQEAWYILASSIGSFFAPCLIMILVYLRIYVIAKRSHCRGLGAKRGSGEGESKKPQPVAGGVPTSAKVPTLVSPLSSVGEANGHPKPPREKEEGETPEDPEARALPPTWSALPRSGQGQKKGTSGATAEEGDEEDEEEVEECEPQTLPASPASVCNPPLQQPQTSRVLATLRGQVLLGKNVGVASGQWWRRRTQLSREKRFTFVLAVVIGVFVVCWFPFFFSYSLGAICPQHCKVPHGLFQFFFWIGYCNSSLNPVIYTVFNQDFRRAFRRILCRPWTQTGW
Description: (§1) Cell preparation: Chinese hamster ovary (CHO) cells expressing the human α2A and human α2C (CHO-C10 and CHO-C4 respectively) receptors and CHO cells (CHO-RNG) expressing the rat α2B adrenoceptor were grown to near confluence in Dulbecco's modified Eagle's medium supplemented with 10% fetal bovine serum using standard cell culture methods. Cells were harvested by scraping and placed into cold buffer of the following composition: 50 mM Tris-HCl, 5 mM EDTA, pH 7.4). Cells were then homogenized with a Polytron homogenizer for 2 X 10 sec at setting #7, and centrifuged for 20 minutes at 49,000 x g. The pellet fraction was washed (resuspended in Tris-HCl, pH 8 buffer and centrifuged for 15-20 minutes at 49,000 x g) 2 times and stored at -100°C until binding assay.
Binding Studies: The radioligands [^3H]rauwolscine (specific activity 80 Ci/mmol) and [^3H]prazosin (specific activity 76 Ci/mmol) were obtained from New England Nuclear, Boston, MA. Frozen membrane pellet was resuspended in 25 mM glycine/glycine, pH 7.5 and incubated with radioligand under the following conditions: CHO-C10, CHO-RNG, CHO-C4-[^3H]rauwolscine, 22°C, 30 minutes; RKC-[^3H]rauwolscine, 0°C, 120 minutes; and, HCC-[^3H]prazosin, 22°C, 30 minutes in a final volume of 500 ul. At the end of the incubation period, the samples were filtered through glass filters (Whatman GF/B) in a 96 well cell harvester and rapidly washed four times with 4 mL of iced-cold 50 mM Tris-HCl buffer. The filters were then oven dried and transferred to scintillation vials containing 10 mL of Beckman's Ready Protein® scintillation cocktail for counting. Specific binding defined by 10 uM phentolamine for competition studies were as follows: 2.4 nM [^3H]brimonidine-RbICB 62%; 2.4 nM [^3H]rauwolscine-RbICB 75%; 2 nM [^3H]rauwolscine-RbKc 88%; 0.3 nM [^3H] rauwolscine-CHO-C10 99%; 0.4 nM [^3H]rauwolscine-CHO-RNG 99%, 0.3 nM [^3H]prazosin 87%; and 1 nM [^3H]rauwolscine-CHO-C4 90%. Protein concentrations were determined with a protein assay kit from Bio Rad. Binding isotherms, equilibrium dissociation and affinity constants were analyzed and determined by the non-linear least squares curve fitting programs EBDA (BioSoft) or AccuFit Competition/Saturation by Beckman.
as §1, with “α2A (CHO-C10)” for “α2A”, “and” for “and human α2C (CHO-C10 and CHO-C4 respectively) receptors and CHO cells (CHO-RNG) expressing”, “α2B(CHO-RNG) human α2Aadrenoceptors” for “α2B adrenoceptor”
The radioligands [^3H)rauwolscine (specific activity 80 Ci/mmol) and [^3H]prazosin (specific activity 76 Ci/mmol) were obtained from New England Nuclear, Boston, MA. Frozen membrane pellet was resuspended in 25 mM glycine/glycine, pH 7.4 and incubated with radioligand under the following conditions: CHO-C10, CHO-RNG, CHO-C4-[^3H]rauwolscine, 22°C, 30 min.; and, HCC-[^3H]prazosin, 22°C, 30 minutes in a final volume of 500 ul. At the end of the incubation period, the samples were filtered through glass fiber filters (Whatman GF/B) in a 96 well cell harvester and rapidly washed four times with 4 mL of iced-cold 50 mM Tris-CHl buffer. The filters were then oven dried and transferred to scintillation vials containing 5 mL of Beckman's Ready Protein® scintillation cocktail for counting. Specific binding defined by 10 uM phentolamine for competition studies were as follows: 0.3 nM[^3H] rauwolscine-CHO-C10 99%; 0.4 nM [^3H]rauwolscine-CHO-RNG 99%, and 0.3 nM [^3H] prazosin-HCC 87%. Protein concentrations were determined with a protein assay kit from Bio Rad. […]
`Cc1ccccc1Nc1ncc[nH]1` showed a Ki of 561 nM.
Compound `c1ccc(Nc2ncc[nH]2)cc1` has a Ki of 1890 nM.
`Brc1c(Nc2ncc[nH]2)ccc2nccnc12` showed a Ki of 12900 nM.
`COc1ccc(Nc2ncc[nH]2)c(C)c1` was tested, and the Ki was 434 nM.
Work on `Brc1ccccc1Nc1ncc[nH]1` yielded a Ki of 1450 nM.
`Clc1cccc(Cl)c1Nc1ncc[nH]1` showed a Ki of 587 nM.
`Cc1c(Nc2ncc[nH]2)ccc2c1OCCO2` showed a Ki of 82 nM.
With `Clc1ccccc1Nc1ncc[nH]1` the Ki was 1940 nM.
`c1cc2c(c(Nc3ncc[nH]3)c1)CCCC2` was tested, and the Ki was 152 nM.
Compound `Cc1c(Nc2ncc[nH]2)ccc2nccnc12` has a Ki of 1160 nM.
For `Cc1c(Nc2ncc[nH]2)ccc2c1NCCO2`, the Ki was 436 nM.
